Experimental data taken from patent US9416115B2, “Fused heterocyclic compounds as ion channel modulators” (Gilead Sciences, Inc., priority 2013, dated 2016).
Read-outs that look alike come from different tables or passages of the source.

Legend:
[1] = molecular target: T1, wild-type human cardiac sodium channel, hNav1.5 (Homo sapiens, UniProt Q14524); test: Peak INa screening assay (tonic block and use-dependent block); assay type: cell-based
Method in brief: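 HEK293 cells stably expressing hNav1.5 (no beta subunits), automated whole-cell patch clamp at 23-25° C, 40 mM Na+ bath (choline substitution), pH 7.35. Compound at 1 or 3 μM, added twice then 200 s equilibration; tonic block by steps to −20 mV from −100 mV at 0.1 Hz, use-dependent block at pulse 50 of a 3 Hz train, rundown-corrected versus compound-free.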

[2] = molecular target: T1, wild-type human cardiac sodium channel, hNav1.5; test: Late INa screening assay (QPatch whole cell patch clamp, Tefluthrin-induced late current); assay type: cell-based; settings: 1 uM; HEK293 hNav1.5; percent block of late INa
Method in brief: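 HEK293 cells stably expressing hNav1.5 without beta subunits were whole-cell patch clamped at 23-25 °C, stepping from −120 to −20 mV for 250 ms at 0.1 Hz. Late current (240–265 ms) was induced with 10 μM Tefluthrin, and compounds were added typically at 0.3 or 1 μM. Percent block was taken against 0 Na baseline with rundown correction.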

[3] = tonic block of Peak INa, 0.1 Hz, holding -100 mV, read-out: Peak TB 3 uM
[4] = use-dependent block of Peak INa, 3 Hz, pulse 50, read-out: Peak UDB 3 Hz 3 uM

T1 sequence (Q14524 whole entry): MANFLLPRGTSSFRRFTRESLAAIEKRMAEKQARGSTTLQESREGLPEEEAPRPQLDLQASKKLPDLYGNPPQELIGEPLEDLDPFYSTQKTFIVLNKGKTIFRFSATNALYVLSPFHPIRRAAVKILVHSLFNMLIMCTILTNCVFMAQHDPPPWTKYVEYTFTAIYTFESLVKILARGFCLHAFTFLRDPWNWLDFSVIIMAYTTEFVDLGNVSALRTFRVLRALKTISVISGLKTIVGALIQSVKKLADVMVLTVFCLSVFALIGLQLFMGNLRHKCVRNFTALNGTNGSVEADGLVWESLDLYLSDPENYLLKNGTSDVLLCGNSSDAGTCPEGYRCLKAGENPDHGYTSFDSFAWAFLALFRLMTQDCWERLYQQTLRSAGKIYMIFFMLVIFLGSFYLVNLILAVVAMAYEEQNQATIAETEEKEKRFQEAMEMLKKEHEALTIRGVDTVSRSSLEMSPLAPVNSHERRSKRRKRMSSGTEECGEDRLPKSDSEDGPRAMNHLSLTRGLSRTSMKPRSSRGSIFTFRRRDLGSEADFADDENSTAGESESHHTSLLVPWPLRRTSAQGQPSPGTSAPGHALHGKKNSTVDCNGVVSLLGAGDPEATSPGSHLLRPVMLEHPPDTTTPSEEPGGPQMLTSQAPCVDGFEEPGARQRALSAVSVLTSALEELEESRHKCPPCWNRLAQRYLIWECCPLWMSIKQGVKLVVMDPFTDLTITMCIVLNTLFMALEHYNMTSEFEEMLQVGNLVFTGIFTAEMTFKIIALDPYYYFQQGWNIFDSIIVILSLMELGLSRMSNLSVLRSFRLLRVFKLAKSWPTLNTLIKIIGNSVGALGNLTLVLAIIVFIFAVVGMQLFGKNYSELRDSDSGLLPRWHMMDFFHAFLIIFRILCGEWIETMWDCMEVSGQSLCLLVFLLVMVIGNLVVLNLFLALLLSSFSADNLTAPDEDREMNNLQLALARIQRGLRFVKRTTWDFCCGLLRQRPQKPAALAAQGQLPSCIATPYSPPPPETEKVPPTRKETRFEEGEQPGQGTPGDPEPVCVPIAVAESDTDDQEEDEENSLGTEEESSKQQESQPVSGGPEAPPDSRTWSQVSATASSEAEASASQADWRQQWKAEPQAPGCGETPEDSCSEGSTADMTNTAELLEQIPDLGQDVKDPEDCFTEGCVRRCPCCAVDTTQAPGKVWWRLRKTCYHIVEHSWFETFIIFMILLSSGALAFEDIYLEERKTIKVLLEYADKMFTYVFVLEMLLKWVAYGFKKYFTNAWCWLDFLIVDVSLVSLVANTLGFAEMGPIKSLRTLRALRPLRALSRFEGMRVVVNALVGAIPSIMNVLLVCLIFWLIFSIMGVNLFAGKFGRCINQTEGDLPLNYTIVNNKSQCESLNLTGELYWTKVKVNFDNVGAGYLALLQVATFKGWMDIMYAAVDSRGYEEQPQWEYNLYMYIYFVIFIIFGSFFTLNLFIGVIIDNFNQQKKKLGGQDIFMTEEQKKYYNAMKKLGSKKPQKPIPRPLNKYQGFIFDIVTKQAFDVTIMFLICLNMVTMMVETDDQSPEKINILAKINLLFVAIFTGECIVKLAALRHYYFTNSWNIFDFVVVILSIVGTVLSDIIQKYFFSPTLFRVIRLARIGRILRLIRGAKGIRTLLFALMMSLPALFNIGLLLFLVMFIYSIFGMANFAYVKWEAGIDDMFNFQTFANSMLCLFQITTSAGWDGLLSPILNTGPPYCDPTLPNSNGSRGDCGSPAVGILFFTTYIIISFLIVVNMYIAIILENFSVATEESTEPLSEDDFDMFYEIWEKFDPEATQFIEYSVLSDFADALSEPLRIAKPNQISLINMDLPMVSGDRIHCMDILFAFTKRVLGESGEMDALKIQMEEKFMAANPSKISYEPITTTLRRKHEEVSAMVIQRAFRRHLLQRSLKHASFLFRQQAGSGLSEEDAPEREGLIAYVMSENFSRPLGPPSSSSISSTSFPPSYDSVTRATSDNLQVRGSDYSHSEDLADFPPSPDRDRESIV

Row | Structure (SMILES) | inhibition at 3 µM [1, 3] | inhibition at 3 µM [1, 4] | inhibition at 1 µM [2]
1 | Cc1cc(-c2cc(C)c3onc(OCc4ncccn4)c3c2)ccc1OC(F)(F)F [Example 18, 7-methyl-5-(3-methyl-4-(trifluoromethoxy)phenyl)-3-(pyrimidin-2-ylmethoxy)benzo[d]isoxazole] | 27.7% | 5.2% | 38.2%
2 | FC(F)(F)COc1ccc(-c2ccc3onc(OCc4ncccn4)c3c2)cn1 [Example 21, 3-(pyrimidin-2-ylmethoxy)-5-(6-(2,2,2-trifluoroethoxy)pyridin-3-yl)benzo[d]isoxazole] | 13% | < 5% | 48.8%
3 | FC(F)(F)Oc1ccc(-c2ccc3onc(OCc4nccn4-c4ccccc4)c3c2)cc1 [Example 64, 3-((1-phenyl-1H-imidazol-2-yl)methoxy)-5-(4-(trifluoromethoxy)phenyl)benzo[d]isoxazole] | 10.1% | < 5% | 30.7%
4 | Fc1cc(-c2ccc(OC(F)(F)F)cc2)cc2c(OCc3ncccn3)noc12 [Example 17, 7-fluoro-3-(pyrimidin-2-ylmethoxy)-5-(4-(trifluoromethoxy)phenyl)benzo[d]isoxazole] | 28.9% | < 5% | 45.9%
5 | O=C1CCCN1CCOc1noc2c(F)cc(-c3ccc(OC(F)(F)F)cc3)cc12 [Example 80, 1-(2-((7-fluoro-5-(4-(trifluoromethoxy)phenyl)benzo[d]isoxazol-3-yl)oxy)ethyl)pyrrolidin-2-one] | 17.3% | 13.7% | 35.6%
